These results are taken from patent US8143226B2, “Tyrosine kinase receptor antagonists and methods of treatment for breast cancer” (The Regents of the University of California, priority 2005, dated 2012).

In test [1] the test system is MCF-7 cells. The experiment in a line: Proliferation of MCF-7 cells in 10% fetal calf serum (CyQUANT). The format is cell-based, human. The following applies: MCF-7, 10% fetal calf serum. The procedure:
MCF-7 or MCNeuA cells were plated in 96 well plates (5×10^3 cells/well) in DMEM supplemented with 10% FCS. One plate was prepared for each harvest day. […] Microplate cultures were harvested on days 0, 1, 2, and 3 by inverting the microplate onto paper towels with gentle blotting to remove growth medium without disrupting adherent cells. Each plate was kept at −80° C. until the end of the experiment (day 3) when all of the plates were thawed and assayed together. After thawing, 200 μl of CyQUANT GR solution was added to each well and the plates were incubated in the dark for two to five minutes. Fluorescence was measured with a SpectraMax Gemini XS fluorescence microplate reader (Molecular Devices, Sunnyvale, Calif.) with 480-nm excitation and 520-nm emission. Proliferation index was calculated as the percent of nucleotide content versus control cells at day 0.

The target of test [2] is T1, HER2/neu (Rattus norvegicus, UniProt P06494).
T1 construct: expressed in transfected cells; host or cells: MCNeuA mouse mammary carcinoma cells (MMTV/neu transgene), in culture or grown as tumours in neuTg mice
The experiment in a line: HER2/neu phosphorylation in excised MCNeuA tumors (western blot). The class given is in vivo, mouse. The conditions noted are these: 37.5 mg/kg i.p. three times a week, 16 hours after final dose, vs vehicle. The protocol:
Tumors were homogenized in 50 mM HEPES, pH 7.6, 150 mM NaCl, 1 mM PMSF, 2 μM leupeptin, 2 μM Pepstatin A, and 2 mM Na3VO4, and solubilized by the addition of 1% Triton x-100. Soluble lysates were prepared as described for cell culture studies. Tyrosine phosphorylation of IGF-1R was determined by ELISA as described for MCF-7 cells. Phosphorylation of HER2/neu was determined by western blot employing the phospho-specific antibody as in the cell culture studies. The degree of phosphorylation for each receptor was normalized to total receptor protein content in the tumor samples as determined by western blotting with antibodies against the human IGF-1R and the rodent HER2/neu.
On the technique in general: A western blot detects proteins with antibodies after separation by electrophoresis.

In test [3] the test system is ERK 1 and 2. The experiment in a line: IGF-stimulated ERK phosphorylation in neuroblastoma cells. The following applies: SH-SY5Y cells, NDGA 1 h, 10 nM IGF-I 15 min. The class given is cell-based, human. The procedure: (§1) Detection of phospho-Akt and phospho-Erk. […] Then, some cultures were treated with 10 nM IGF-I for 15 min. Cultures were immediately placed on ice, the medium was removed, and the cells were lysed in modified RIPA buffer (20 mM Tris, 150 mM NaCl, 1 mM EDTA, 1 mM EGTA, 1% Triton X-100, 0.1% sodium dodecyl sulfate, and 1% deoxycholate). Fifty μg of protein from each sample were separated via SDS-PAGE and transfened to nitrocellulose. Phospho- and total-Akt and -Erk were detected by immunoblotting.

Test [4] concerns Akt. The experiment in a line: IGF-stimulated Akt phosphorylation in neuroblastoma cells. The class given is cell-based, human. The following applies: SH-SY5Y and SHEP cells. The protocol: as §1
In test [5] the test system is PDGF receptor. The following applies: Domin et al. 1994; cited from earlier work.
For test [6], the target named is T2, IGF-1R (Homo sapiens, UniProt P08069). The experiment in a line: IGF-1R phosphorylation ELISA in MCF-7/HER2-18 cells. The conditions noted are these: 3 nM IGF-I 10 min. Set-up: endogenous in cells; host or cells: MCF-7/HER2-18. The class given is cell-based.
Protocol: RTK inhibitors were dissolved in DMSO and diluted with culture medium before being added to cells for 1.5 hour at 37° C. The final concentration of DMSO during the incubation was 0.3% . For some studies, cells were also stimulated with 3 nM IGF-I for 10 minutes at 37° C. Reactions were terminated by rapidly aspirating medium and washing cells three times with ice cold PBS. Cells were harvested and solubilized in 50 mM HEPES, 150 mM NaCl, 1% Triton X-100, 1 mM PMSF, and 2 mM vanadate for 1 hour at 4° C. Protein concentrations were determined by BCA assay (Pierce, Rockford, Ill.). […] Briefly, 10 μg lysate protein were added to triplicate wells in a 96-well plate coated with monoclonal antibody to the IGF-IR (IR3; 2 μg/ml), and incubated for 18 hours at 4° C. Plates were washed five times and then HRP-conjugated anti-phosphotyrosine antibody (0.3 μg/ml), diluted in Solution B (50 mM HEPES, pH 7.6, 150 mM NaCl, 0.05% Tween-20, 1 mM PMSF, 2 mM vanadate and 1 mg/ml bacitracin), was added for two hours at 22° C. Plates were washed five times prior to color development with TMB substrate, which was terminated with 1.0 M H3PO4. Values for receptor phosphorylation were determined by measuring absorbance at 450 nm.
Test [7] deals with T2, IGF-1R. The experiment in a line: Tyrosine kinase activity of partially purified IGF-1R on poly Glu4:Tyr1 (ELISA). The class given is biochemical. Set-up: made in house; host or cells: CHO cells (CHOIGF-1R / CHO-IGFR), partially purified by wheat germ agglutinin chromatography. The protocol:
IGF-1 and HER2/neu receptors were partially purified by WGA chromatography of cells overexpressing the protein of interest. To isolate IGF-1R, CHO cells transfected with and overexpressing the human IGF-1R (CHOIGF-1R) were plated in T-150 flasks and grown in DMEM supplemented with 10% fetal calf serum (FCS) until 80% confluent. Cells were harvested in the basal state and solubilized in 50 mM HEPES, 10% glycerol, 1% Triton X-100, 150 mM NaCl, 5 μM EGTA, 0.24 mg/ml aminoethyl-benzensulfonyl fluoride (AEBSF), 10 μg/ml aprotinin, 25 mM benzamidine, 10 μg soybean trypsin inhibitor, and 5 μg/ml leuptin for one hour at 4° C. Samples were centrifuged for 60 minutes at 100,000 g and solubilized extract collected. Rodent HER2/neu receptors were collected from MCNeuA cells crown under identical conditions and processed similarly. Lysates from both cell lines were loaded onto a 1 ml wheat germ agglutin (WGA) column (Pharmacia, Piscataway, N.J.), washed with WGA buffer (50 mM HEPES pH 7.6, 150 mM NaCl, 0.1% Triton X-100, 1 mg/ml bacitracin, and 1 mM PMSF). Receptors were then eluted with WGA buffer supplemented with 0.3 N N-Acetyl-D-glucosamine. WGA fractions containing RTK of interest were determined by SDS page and a western blot that employed antibodies against either the IGF-1R or HER2/neu as appropriate. […]
In general terms: In an ELISA, binding on a coated surface is turned into a signal by an enzyme label.

T2 sequence (P08069 31-1367): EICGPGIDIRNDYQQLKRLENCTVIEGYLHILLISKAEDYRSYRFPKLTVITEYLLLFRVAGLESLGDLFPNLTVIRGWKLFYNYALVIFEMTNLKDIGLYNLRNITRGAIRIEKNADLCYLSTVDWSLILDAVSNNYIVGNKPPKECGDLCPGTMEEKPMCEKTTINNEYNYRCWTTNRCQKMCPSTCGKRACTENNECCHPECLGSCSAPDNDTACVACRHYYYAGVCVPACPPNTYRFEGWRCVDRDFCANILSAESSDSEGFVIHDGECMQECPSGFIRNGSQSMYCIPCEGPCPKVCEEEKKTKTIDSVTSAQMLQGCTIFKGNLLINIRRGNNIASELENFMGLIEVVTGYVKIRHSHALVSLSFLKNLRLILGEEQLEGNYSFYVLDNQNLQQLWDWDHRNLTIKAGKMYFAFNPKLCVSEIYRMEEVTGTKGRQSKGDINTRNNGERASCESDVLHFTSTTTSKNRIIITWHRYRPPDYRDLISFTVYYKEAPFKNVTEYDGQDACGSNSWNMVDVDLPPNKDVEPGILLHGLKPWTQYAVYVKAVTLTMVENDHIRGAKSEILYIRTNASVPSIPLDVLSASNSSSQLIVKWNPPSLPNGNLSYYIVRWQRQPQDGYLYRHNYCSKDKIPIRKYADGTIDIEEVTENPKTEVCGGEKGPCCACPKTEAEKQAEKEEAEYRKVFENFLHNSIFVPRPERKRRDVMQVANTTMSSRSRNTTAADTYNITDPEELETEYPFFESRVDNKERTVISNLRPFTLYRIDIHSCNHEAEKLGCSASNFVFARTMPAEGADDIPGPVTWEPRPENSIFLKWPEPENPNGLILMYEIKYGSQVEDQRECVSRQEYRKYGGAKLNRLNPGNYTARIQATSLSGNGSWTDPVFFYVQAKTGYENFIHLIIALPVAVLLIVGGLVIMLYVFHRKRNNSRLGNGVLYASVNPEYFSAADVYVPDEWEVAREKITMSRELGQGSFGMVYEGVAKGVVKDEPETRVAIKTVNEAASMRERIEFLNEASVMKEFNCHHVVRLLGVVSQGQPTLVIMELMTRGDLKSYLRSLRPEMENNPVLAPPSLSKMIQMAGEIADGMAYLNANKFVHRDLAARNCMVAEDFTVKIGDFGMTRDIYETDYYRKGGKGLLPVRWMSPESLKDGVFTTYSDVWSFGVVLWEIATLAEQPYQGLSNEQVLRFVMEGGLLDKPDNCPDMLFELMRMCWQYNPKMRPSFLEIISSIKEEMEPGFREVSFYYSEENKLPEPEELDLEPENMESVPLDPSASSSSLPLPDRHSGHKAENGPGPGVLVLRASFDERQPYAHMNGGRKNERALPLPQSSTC
T1 sequence (P06494 23-1257): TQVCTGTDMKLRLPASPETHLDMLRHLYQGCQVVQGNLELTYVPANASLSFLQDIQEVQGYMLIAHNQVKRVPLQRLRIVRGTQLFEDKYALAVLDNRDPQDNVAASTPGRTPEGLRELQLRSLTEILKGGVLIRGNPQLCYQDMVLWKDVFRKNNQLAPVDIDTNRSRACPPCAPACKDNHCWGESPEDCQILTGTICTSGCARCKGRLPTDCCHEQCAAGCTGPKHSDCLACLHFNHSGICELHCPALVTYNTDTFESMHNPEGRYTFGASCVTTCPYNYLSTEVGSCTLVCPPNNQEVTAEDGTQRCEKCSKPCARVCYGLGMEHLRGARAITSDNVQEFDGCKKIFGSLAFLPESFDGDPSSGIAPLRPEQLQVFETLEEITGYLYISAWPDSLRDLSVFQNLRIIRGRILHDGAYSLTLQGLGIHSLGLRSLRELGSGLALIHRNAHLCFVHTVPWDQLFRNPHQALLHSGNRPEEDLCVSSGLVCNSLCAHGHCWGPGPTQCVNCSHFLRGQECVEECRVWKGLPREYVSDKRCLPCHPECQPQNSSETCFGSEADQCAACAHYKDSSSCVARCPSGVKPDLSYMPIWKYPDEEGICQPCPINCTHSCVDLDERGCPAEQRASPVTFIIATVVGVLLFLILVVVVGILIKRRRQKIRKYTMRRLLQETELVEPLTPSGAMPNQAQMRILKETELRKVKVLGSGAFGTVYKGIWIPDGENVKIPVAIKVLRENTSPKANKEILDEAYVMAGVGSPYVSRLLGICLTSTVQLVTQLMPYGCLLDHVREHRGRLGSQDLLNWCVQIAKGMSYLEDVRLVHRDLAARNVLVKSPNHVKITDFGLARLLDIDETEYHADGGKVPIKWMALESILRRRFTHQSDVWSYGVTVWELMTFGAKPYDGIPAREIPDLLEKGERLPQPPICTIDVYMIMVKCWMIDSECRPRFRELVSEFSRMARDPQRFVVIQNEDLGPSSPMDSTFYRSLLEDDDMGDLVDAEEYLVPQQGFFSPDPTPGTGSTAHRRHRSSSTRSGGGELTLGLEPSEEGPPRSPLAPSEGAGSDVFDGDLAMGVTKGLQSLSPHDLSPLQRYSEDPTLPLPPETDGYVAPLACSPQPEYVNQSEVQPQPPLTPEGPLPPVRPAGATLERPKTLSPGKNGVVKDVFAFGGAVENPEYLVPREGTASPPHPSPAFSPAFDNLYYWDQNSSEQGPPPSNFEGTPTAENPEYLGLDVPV

As to `CC(Cc1ccc(O)c(O)c1)C(C)Cc1ccc(O)c(O)c1` (stereo not drawn) [NDGA, nordihydroguaiaretic acid], the cell number result in test [1] (60 μM, within 24 hours) was “dramatically reduced”. In addition, the “lowest concentration significantly reducing rate of proliferation” value in test [1] (up to 3 days) amounted to 15 µM. Moreover, the “HER2/neu receptor autophosphorylation in tumors” value in test [2] was “reduced”. In addition, the “IGF-stimulated phosphorylation of ERK” value in test [3] was “dose-dependent inhibitory effect”. In addition, the “IGF-stimulated Akt phosphorylation” value in test [4] was “dose-dependent inhibition”. Further, the “activation of the PDGF receptor” value in test [5] was “inhibits”. Besides, the “IGF-1 stimulated phosphorylation of the IGF-1R” value in test [6] is recorded as “strongly inhibited”. The “lowest concentration reducing IGF-1 stimulated tyrosine phosphorylation of poly Glu4:Tyr1” value in test [7] (NDGA 20 minutes prior to 10 nM IGF-1) was determined as 0.3 µM. Also, in test [7] (summary statement), the “concentration inhibiting IGF-1-stimulated tyrosine kinase activity of isolated IGF-1R” value was at most 10 µM.
